In series [1] the target is T1, WT (SfTre1, S. frugiperda midgut soluble trehalase, recombinant) (Spodoptera frugiperda, UniProt Q0ZIF5).
T1 sequence (Q0ZIF5 24-587): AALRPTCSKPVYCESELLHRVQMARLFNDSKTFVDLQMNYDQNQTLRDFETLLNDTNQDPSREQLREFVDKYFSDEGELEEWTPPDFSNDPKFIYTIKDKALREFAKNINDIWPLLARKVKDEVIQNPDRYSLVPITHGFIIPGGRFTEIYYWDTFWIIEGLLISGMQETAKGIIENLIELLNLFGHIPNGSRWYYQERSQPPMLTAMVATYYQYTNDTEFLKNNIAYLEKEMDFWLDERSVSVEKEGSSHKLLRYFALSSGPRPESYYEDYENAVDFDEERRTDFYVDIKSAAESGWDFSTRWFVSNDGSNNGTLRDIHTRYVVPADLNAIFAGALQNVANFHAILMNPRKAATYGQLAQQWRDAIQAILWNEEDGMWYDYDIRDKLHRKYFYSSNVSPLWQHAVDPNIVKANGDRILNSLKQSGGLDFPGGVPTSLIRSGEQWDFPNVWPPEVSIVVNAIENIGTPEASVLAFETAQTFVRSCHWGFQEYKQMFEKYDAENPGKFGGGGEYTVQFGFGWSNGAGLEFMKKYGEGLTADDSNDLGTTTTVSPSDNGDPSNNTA
The series can be described thus: glucose release assay, Lineweaver-Burk slope replots. The series is classed as biochemical.

The target in series [2] is T2, NT (N-terminal truncated trehalase) (Spodoptera frugiperda, UniProt Q0ZIF5, DEL1-102).
T2 sequence (Q0ZIF5 126-587): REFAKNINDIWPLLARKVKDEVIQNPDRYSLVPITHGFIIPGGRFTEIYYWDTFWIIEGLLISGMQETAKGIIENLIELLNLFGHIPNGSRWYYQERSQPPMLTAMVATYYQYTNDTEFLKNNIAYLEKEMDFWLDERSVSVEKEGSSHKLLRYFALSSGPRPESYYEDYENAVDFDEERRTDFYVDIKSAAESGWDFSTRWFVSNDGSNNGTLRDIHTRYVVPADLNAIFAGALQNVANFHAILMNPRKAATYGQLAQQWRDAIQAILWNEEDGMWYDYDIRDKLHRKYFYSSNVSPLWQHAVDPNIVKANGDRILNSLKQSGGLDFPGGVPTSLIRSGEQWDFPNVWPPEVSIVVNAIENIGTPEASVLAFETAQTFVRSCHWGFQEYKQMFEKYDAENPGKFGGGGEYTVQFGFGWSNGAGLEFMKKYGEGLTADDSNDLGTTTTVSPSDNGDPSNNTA
The description is as above. The series is classed as biochemical.

In series [3] the target is T3, NCT (N- and C-terminal truncated trehalase) (Spodoptera frugiperda, UniProt Q0ZIF5, C-[…]/DEL1-102/LAST/RESIDUES/[…]).
T3 sequence (Q0ZIF5 126-556): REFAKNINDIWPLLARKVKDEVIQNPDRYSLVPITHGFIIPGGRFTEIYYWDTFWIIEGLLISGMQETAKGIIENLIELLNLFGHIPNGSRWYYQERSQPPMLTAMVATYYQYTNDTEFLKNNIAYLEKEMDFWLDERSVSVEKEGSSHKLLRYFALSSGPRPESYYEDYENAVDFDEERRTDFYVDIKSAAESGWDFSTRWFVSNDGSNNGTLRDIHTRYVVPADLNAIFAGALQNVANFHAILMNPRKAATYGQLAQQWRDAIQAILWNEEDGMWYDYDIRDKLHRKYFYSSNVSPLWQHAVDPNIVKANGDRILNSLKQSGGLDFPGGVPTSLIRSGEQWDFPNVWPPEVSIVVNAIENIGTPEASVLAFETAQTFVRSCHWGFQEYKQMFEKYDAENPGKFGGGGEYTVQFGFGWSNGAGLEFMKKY
The series is described as above. The format is biochemical.

The target of series [4] is T3, NCT (N- and C-terminal truncated trehalase). The series is described as above. The series is classed as biochemical. This is another data set of the same source.
Series [5] addresses T1, WT (SfTre1, S. frugiperda midgut soluble trehalase, recombinant). The description is as above. The format is biochemical. This is another data set of the same source.
Series [6] addresses T4, NCT (N- and C-terminal truncated trehalase) (Spodoptera frugiperda, UniProt Q0ZIF5).
T4 sequence (Q0ZIF5 126-556): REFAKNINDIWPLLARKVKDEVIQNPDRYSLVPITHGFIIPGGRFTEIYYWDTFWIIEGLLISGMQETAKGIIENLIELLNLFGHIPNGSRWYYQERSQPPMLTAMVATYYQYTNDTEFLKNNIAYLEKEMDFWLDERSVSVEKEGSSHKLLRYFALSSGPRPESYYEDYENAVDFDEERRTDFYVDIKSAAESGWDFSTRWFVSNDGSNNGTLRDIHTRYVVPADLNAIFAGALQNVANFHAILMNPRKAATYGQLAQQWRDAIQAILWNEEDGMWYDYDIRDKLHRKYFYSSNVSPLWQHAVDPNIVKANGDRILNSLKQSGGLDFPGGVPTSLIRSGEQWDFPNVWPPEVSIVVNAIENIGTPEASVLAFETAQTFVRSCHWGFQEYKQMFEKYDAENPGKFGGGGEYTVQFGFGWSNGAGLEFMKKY
The series is described as above. The format is biochemical. The conditions noted are these: read-out: Enzyme / NCT; competitive; substrate trehalose 0.2-2 mM; pH 6.0, 30 °C.

The target in series [7] is T5, NT (N-terminal truncated trehalase) (Spodoptera frugiperda, UniProt Q0ZIF5).
T5 sequence (Q0ZIF5 126-587): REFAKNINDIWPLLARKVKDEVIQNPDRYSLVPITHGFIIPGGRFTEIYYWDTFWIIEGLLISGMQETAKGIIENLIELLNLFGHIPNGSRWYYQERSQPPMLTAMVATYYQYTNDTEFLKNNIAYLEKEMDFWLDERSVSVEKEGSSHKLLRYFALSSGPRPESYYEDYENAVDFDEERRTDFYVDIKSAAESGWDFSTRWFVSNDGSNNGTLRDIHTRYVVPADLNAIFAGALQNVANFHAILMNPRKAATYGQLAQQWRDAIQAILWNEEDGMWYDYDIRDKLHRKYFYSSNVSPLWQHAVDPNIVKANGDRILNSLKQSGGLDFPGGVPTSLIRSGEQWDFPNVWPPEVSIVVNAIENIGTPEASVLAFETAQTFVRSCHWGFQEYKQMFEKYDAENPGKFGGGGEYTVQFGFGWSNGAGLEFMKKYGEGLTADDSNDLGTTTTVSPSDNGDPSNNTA
The series is described as above. The format is biochemical. The conditions noted are these: read-out: Enzyme / NT; competitive; substrate trehalose 0.2-2 mM; pH 6.0, 30 °C.

Substrate in the series “purified protein”: OC[C@H]1O[C@H](O[C@H]2O[C@H](CO)[C@@H](O)[C@H](O)[C@H]2O)[C@H](O)[C@@H](O)[C@@H]1O
Put plainly: purified protein. The conditions noted are these: pH 6.0 citrate-sodium phosphate, 30 °C.

Like-named read-outs stand apart in the source and are kept apart here.

As to `N#C[C@H](O[C@@H]1O[C@H](CO[C@@H]2O[C@H](CO)[C@@H](O)[C@H](O)[C@H]2O)[C@@H](O)[C@H](O)[C@H]1O)c1ccccc1` [amygdalin], the values for the Ki in series [1], in series [2] and in series [3] were 280 ± 70 µM, 400 ± 100 µM and 490 ± 90 µM, respectively.

For the molecule `OC[C@H]1NC[C@H](O)[C@@H](O)[C@@H]1O` [1-deoxynojirimycin], the Ki in series [4] worked out at 0.8 ± 0.2 µM; in series [5], 1 ± 0.24 µM.

Regarding `COC1OC(CO)C(O)C(O)C1O` (stereo not drawn) [methyl α-mannoside], the Ki in series [6] came out at 16000 ± 1000 µM; in series [5] (read-out: Enzyme / WT, competitive, substrate trehalose 0.2-2 mM, pH 6.0, 30 °C), 17000 ± 1000 µM; in series [7], 17000 ± 2000 µM.

B1: WT (SfTre1, S. frugiperda midgut soluble trehalase, recombinant) (Spodoptera frugiperda) (protein)
chain: AALRPTCSKPVYCESELLHRVQMARLFNDSKTFVDLQMNYDQNQTLRDFETLLNDTNQDPSREQLREFVDKYFSDEGELEEWTPPDFSNDPKFIYTIKDKALREFAKNINDIWPLLARKVKDEVIQNPDRYSLVPITHGFIIPGGRFTEIYYWDTFWIIEGLLISGMQETAKGIIENLIELLNLFGHIPNGSRWYYQERSQPPMLTAMVATYYQYTNDTEFLKNNIAYLEKEMDFWLDERSVSVEKEGSSHKLLRYFALSSGPRPESYYEDYENAVDFDEERRTDFYVDIKSAAESGWDFSTRWFVSNDGSNNGTLRDIHTRYVVPADLNAIFAGALQNVANFHAILMNPRKAATYGQLAQQWRDAIQAILWNEEDGMWYDYDIRDKLHRKYFYSSNVSPLWQHAVDPNIVKANGDRILNSLKQSGGLDFPGGVPTSLIRSGEQWDFPNVWPPEVSIVVNAIENIGTPEASVLAFETAQTFVRSCHWGFQEYKQMFEKYDAENPGKFGGGGEYTVQFGFGWSNGAGLEFMKKYGEGLTADDSNDLGTTTTVSPSDNGDPSNNTA
In general, kcat/Km refers to the second-order rate constant that governs catalysis at low substrate concentration. With B1, the kcat/Km in the series “purified protein” was found to be 74500 M⁻¹ s⁻¹.
